In test [1] the test system is C. albicans. The class given is cell-based.
Test [2] deals with Staphylococcus aureus, strain ATCC 25923. Type of test: cell-based. The protocol: (§1) MIC determinations on Staphylococcus aureus, strain ATCC 25923, Methicillin resistant Staphylococcus aureus (MRSA) strain ATCC 33591 and Methicillin resistant Staphylococcus epidermidis (MRSE) strain ATCC 27626 were performed by Toslab AS using standard methods. Amsterdam, D. (1996) Susceptibility testing of antimicrobials in liquid media, in Antibiotics in Laboratory Medicine. 4th ed (Lorian, V., Ed.) pp 75-78, Williams and Wilkins Co; Baltimore.

Test [3] relates to S. pyogenes. Type of test: cell-based.
The subject of test [4] is E. coli. Type of test: cell-based.
The test system of test [5] is P. aeruginosa. The class given is cell-based.
Test [6] concerns Methicillin resistant Staphylococcus aureus (MRSA) strain ATCC 33591. Type of test: cell-based. The protocol: as §1
For test [7], the system named is Staphylococcus haemolyticus. The experiment in a line: Susceptibility testing under planktonic growth condition (MIC). As to conditions: E-test (rifampicin: broth microdilution). (In broth dilution the organism is exposed to a series of concentrations in liquid medium.)
For test [8], the system named is Staphylococcus epidermidis. The description is as above. As to conditions: E-test (rifampicin: broth microdilution).
Test [9] deals with Staphylococcus aureus. The description is as above. As to conditions: E-test (rifampicin: broth microdilution).
The test system of test [10] is S. haemolyticus TUH 51-07 biofilm. The experiment in a line: Biofilm imaging, LIVE/DEAD staining, confocal laser scanning microscopy. The class given is cell-based. As for the experimental part: One ml aliquots of MHIIB-diluted overnight culture was used to grow S. haemolyticus TUH 51-07 biofilm on plastic coverslides (Thermanox, cellculture treated on one side, NUNC) in 24-well dishes (Falcon 3047, Becton Dickinson, N.J., USA) for 24 h. The coverslides were then washed carefully with PBS, moved to a new plate and treated for 24 h with tetracycline 50 mg/L and 500 mg/L, vancomycin 50 mg/L and 500 mg/L, or Compound […] and 500 mg/L. The coverslides were washed again with […] and stained with a LIVE/DEAD kit (Invitrogen Molecular Probes, Eugene, Oreg., USA) following the manufacturer's instructions. This stain contains SYTO 9 (green fluorescent) and propidium iodide (PI; red fluorescent), both binding to DNA. When used alone, the SYTO 9 generally stains all bacteria in a population; both those with intact and those with damaged membranes. In contrast, PI penetrates only bacteria with damaged membranes, causing a reduction in the SYTO 9 stain green fluorescence when both dyes are present. We examined treated and untreated biofilms with a Leica TCS SP5 (Leica Microsystems Cms Gmbh, Mannheim, Germany) confocal laser scanning microscope (CLSM). Images were obtained using a 63×1.2 NA HCX PL APO water immersion lens. For detection of SYTO9 (green channel), we used the 488 nm line of the argon laser and a detection bandwidth of 495-515 nm. […]

Setting [11] is: strain SH TUH 51-07, blood culture.
[12] abbreviates: strain TUH 51-03, blood culture.
Setting [13] is: strain SE RP62A ATCC 35984, blood culture.
Where [14] appears, read: strain SE TUH 08-16, blood culture.

This note sets out measurements from patent US9556223B2, “Antimicrobial compounds” (priority 2008, dated 2017).

Converted amounts (≈) assume the structure as drawn.

Consider `CCCCCCCCCCCCCCCCNC(=O)[C@H](CCCNC(=N)N)NC(=O)[C@H](Cc1c(C(C)(C)C)[nH]c2c(C(C)(C)C)cc(C(C)(C)C)cc12)NC(=O)[C@@H](N)CCCNC(=N)N` [Compound 5], for which the “MIC C. albicans” value in test [1] is more than 100 µg/mL. Besides, the “MIC S. aureus” value in test [2] was determined as 5 µg/mL (≈ 5.5 µM). The “MIC S. pyogenes” value in test [3] came out at 6 µg/mL (≈ 6.61 µM). Besides, the “MIC E. coli” value in test [4] was more than 100 µg/mL. Moreover, the “MIC P. aeruginosa” value in test [5] was more than 100 µg/mL.

`CC(C)(C)c1cc(C(C)(C)C)c2[nH]c(C(C)(C)C)c(C[C@H](NC(=O)[C@@H](N)CCCNC(=N)N)C(=O)N[C@@H](CCCNC(=N)N)C(=O)NC3CCCC3)c2c1` [Compound 8]: the “MIC MRSA” value in test [6] was less than 15 µg/mL.

Turning to `CC(=O)NC[C@H]1CN(c2ccc(N3CCOCC3)c(F)c2)C(=O)O1` [LZD, linezolid], the MIC antibiotics in test [7] (setting [11]) came to 0.5 µg/mL (≈ 1.48 µM); in test [7] (setting [12]) it was 0.5 µg/mL (≈ 1.48 µM); in test [8] (setting [13]) it was 1 µg/mL (≈ 2.96 µM); in test [8] (setting [14]), 2 µg/mL (≈ 5.93 µM); in test [9] (strain SA PIA 9, joint fluid), 2 µg/mL (≈ 5.93 µM); in test [9] (strain SA PIA90, joint fluid), 1 µg/mL (≈ 2.96 µM).

Regarding `Cc1onc(-c2ccccc2)c1C(=O)N[C@@H]1C(=O)N2[C@@H]1SC(C)(C)[C@@H]2C(=O)O` [OXA, oxacillin], the MIC antibiotics in test [7] (setting [11]) was more than 256 µg/mL; in [7] (setting [12]), more than 256 µg/mL; in [8] (setting [13]) it was 8 µg/mL (≈ 19.9 µM); in test [8] (setting [14]), 16 µg/mL (≈ 39.9 µM); in test [9] (strain SA PIA 9, joint fluid), 1 µg/mL (≈ 2.49 µM); in test [9] (strain SA PIA90, joint fluid) it was 1 µg/mL (≈ 2.49 µM).

`CO[C@H]1/C=C/O[C@@]2(C)Oc3c(C)c(O)c4c(O)c(c(/C=N/N5CCN(C)CC5)c(O)c4c3C2=O)NC(=O)/C(C)=C\C=C\[C@H](C)[C@H](O)[C@@H](C)[C@@H](O)[C@@H](C)[C@H](OC(C)=O)[C@@H]1C` [RIF, rifampicin]: the MIC antibiotics was 0.016 µg/mL (≈ 0.0194 µM) in [7] (setting [11]); less than 0.016 µg/mL in test [7] (setting [12]); less than 0.016 µg/mL in [8] (setting [13]); 0.016 µg/mL (≈ 0.0194 µM) in test [8] (setting [14]); less than 0.016 µg/mL in test [9] (strain SA PIA 9, joint fluid); 0.016 µg/mL (≈ 0.0194 µM) in test [9] (strain SA PIA90, joint fluid).

Turning to `CN(C)[C@@H]1C(=O)C(C(N)=O)=C(O)[C@@]2(O)C(=O)C3=C(O)c4c(O)cccc4[C@@](C)(O)[C@H]3C[C@@H]12` [TET, tetracycline], the “LIVE/DEAD staining of biofilm cells (green live, red dead)” value in test [10] (24 h treatment at 500 mg/L) is “a significant part of the cells are still green indicating live bacteria with intact cell membrane”. Further, the MIC antibiotics is 0.5 µg/mL (≈ 1.13 µM) in [7] (setting [11]); 1 µg/mL (≈ 2.25 µM) in [7] (setting [12]); 0.5 µg/mL (≈ 1.13 µM) in test [8] (setting [13]); 2 µg/mL (≈ 4.5 µM) in test [8] (setting [14]); 0.5 µg/mL (≈ 1.13 µM) in [9] (strain SA PIA 9, joint fluid); 0.5 µg/mL (≈ 1.13 µM) in test [9] (strain SA PIA90, joint fluid).

`CN[C@H](CC(C)C)C(=O)N[C@H]1C(=O)N[C@@H](CC(N)=O)C(=O)N[C@H]2C(=O)N[C@H]3C(=O)N[C@H](C(=O)N[C@H](C(=O)O)c4cc(O)cc(O)c4-c4cc3ccc4O)[C@H](O)c3ccc(c(Cl)c3)Oc3cc2cc(c3O[C@@H]2O[C@H](CO)[C@@H](O)[C@H](O)[C@H]2O[C@H]2C[C@](C)(N)[C@H](O)[C@H](C)O2)Oc2ccc(cc2Cl)[C@H]1O` [VAN, vancomycin]: in [10] (24 h treatment at 50 mg/L), the “LIVE/DEAD staining of biofilm cells (green live, red dead)” value is reported as “predominantly green cells (live organisms)”. Also, the MIC antibiotics in test [7] (setting [11]) amounted to 2 µg/mL (≈ 1.38 µM); in test [7] (setting [12]), 4 µg/mL (≈ 2.76 µM); in [8] (setting [13]), 4 µg/mL (≈ 2.76 µM); in test [8] (setting [14]), 2 µg/mL (≈ 1.38 µM); in [9] (strain SA PIA 9, joint fluid), 2 µg/mL (≈ 1.38 µM); in test [9] (strain SA PIA90, joint fluid) it was 2 µg/mL (≈ 1.38 µM).

Take gentamicin: the MIC antibiotics in [7] (setting [11]) worked out at 64 µg/mL; in test [7] (setting [12]), 64 µg/mL; in test [8] (setting [13]), 8 µg/mL; in test [8] (setting [14]) it was 256 µg/mL; in test [9] (strain SA PIA 9, joint fluid), 1 µg/mL; in test [9] (strain SA PIA90, joint fluid), 0.5 µg/mL.
